The supplement of paper PMC6045584
± gives the standard deviation of the averaged measurements.

These test systems were tested with CC(=O)NCC(=O)N1[C@@H]2CC[C@H]1c1ccc(Nc3ncc(C(F)(F)F)c(NC4CCC4)n3)cc12 (assay: surviving fraction relative to DMSO-only wells; higher = less growth inhibition). Settings: 0.5 nM; exposure time: 5 days.
In short: (§1)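 Log-phase tumour cell lines were seeded at 250–500 cells per well in 384-well plates. After 24 hours they were exposed continuously for five days to inhibitors at 0.5, 1, 5, 10, 50, 100, 500 and 1000 nM. Viability was read by CellTiter-Glo luminescence after 10 minutes at room temperature, and surviving fraction is luminescence normalised to the median of DMSO-only wells. Each line was screened three times and kept only if replicate Pearson r >0.7 and median Z' >0.3.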

Test System | surviving fraction
HS578T BREAST | 1 ± 0.016
JURKAT HAEMATOPOIETIC AND LYMPHOID TISSUE | 1.07 ± 0.015
MDAMB453 BREAST | 1.03 ± 0.021
S68 BREAST | 0.875 ± 0.16
SCC003 HEADNECK | 0.911 ± 0.056

Same assay, conditions: 1 nM; exposure time: 5 days

Test System | surviving fraction
HS578T BREAST | 0.962 ± 0.088
JURKAT HAEMATOPOIETIC AND LYMPHOID TISSUE | 1.06 ± 0.028
MDAMB453 BREAST | 1.05 ± 0.034
S68 BREAST | 0.86 ± 0.083
SCC003 HEADNECK | 0.889 ± 0.096

Same assay, conditions: 5 nM; exposure time: 5 days

Test System | surviving fraction
HS578T BREAST | 0.918 ± 0.23
JURKAT HAEMATOPOIETIC AND LYMPHOID TISSUE | 1.07 ± 0.012
MDAMB453 BREAST | 1.01 ± 0.046
S68 BREAST | 0.973 ± 0.18
SCC003 HEADNECK | 1.05 ± 0.06

Same assay, conditions: 10 nM; exposure time: 5 days

Test System | surviving fraction
HS578T BREAST | 0.879 ± 0.027
JURKAT HAEMATOPOIETIC AND LYMPHOID TISSUE | 1.03 ± 0.03
MDAMB453 BREAST | 1.07 ± 0.032
S68 BREAST | 0.946 ± 0.11
SCC003 HEADNECK | 1.02 ± 0.027

Same assay, conditions: 50 nM; exposure time: 5 days

Test System | surviving fraction
HS578T BREAST | 0.866 ± 0.085
JURKAT HAEMATOPOIETIC AND LYMPHOID TISSUE | 0.286 ± 0.012
MDAMB453 BREAST | 0.794 ± 0.091
S68 BREAST | 0.487 ± 0.057
SCC003 HEADNECK | 0.988 ± 0.043

Same assay, conditions: 100 nM; exposure time: 5 days

Test System | surviving fraction
HS578T BREAST | 0.721 ± 0.081
JURKAT HAEMATOPOIETIC AND LYMPHOID TISSUE | 0.677 ± 0.018
MDAMB453 BREAST | 0.725 ± 0.094
S68 BREAST | 0.472 ± 0.024
SCC003 HEADNECK | 0.636 ± 0.063

Same assay, conditions: 500 nM; exposure time: 5 days

Test System | surviving fraction
HS578T BREAST | 0.592 ± 0.071
JURKAT HAEMATOPOIETIC AND LYMPHOID TISSUE | 0.395 ± 0.01
MDAMB453 BREAST | 0.541 ± 0.038
S68 BREAST | 0.529 ± 0.081
SCC003 HEADNECK | 0.425 ± 0.035

Same assay, conditions: 1000 nM; exposure time: 5 days

Test System | surviving fraction
HS578T BREAST | 0.559 ± 0.11
JURKAT HAEMATOPOIETIC AND LYMPHOID TISSUE | 0.305 ± 0.019
MDAMB453 BREAST | 0.413 ± 0.015
S68 BREAST | 0.466 ± 0.13
SCC003 HEADNECK | 0.397 ± 0.076

These test systems were tested with CC(=O)O[C@H]1C(=O)[C@@]2(C)[C@H]([C@H](OC(=O)c3ccccc3)[C@]3(O)C[C@H](OC(=O)[C@H](O)[C@@H](NC(=O)c4ccccc4)c4ccccc4)C(C)=C1C3(C)C)[C@]1(OC(C)=O)CO[C@@H]1C[C@@H]2O [PACLITAXEL] in the same assay as above. Settings: 0.5 nM; exposure time: 5 days.
In short: as §1

Test System | surviving fraction
HS578T BREAST | 0.428 ± 0.043
JURKAT HAEMATOPOIETIC AND LYMPHOID TISSUE | 1.01 ± 0.024
MDAMB453 BREAST | 0.988 ± 0.082
S68 BREAST | 0.815 ± 0.052
SCC003 HEADNECK | 0.945 ± 0.11

Same assay, conditions: 1 nM; exposure time: 5 days

Test System | surviving fraction
HS578T BREAST | 0.246 ± 0.019
JURKAT HAEMATOPOIETIC AND LYMPHOID TISSUE | 0.675 ± 0.042
MDAMB453 BREAST | 0.998 ± 0.096
S68 BREAST | 0.575 ± 0.13
